Test results from paper PMC9569420 (Communications Biology, 2022).

Assays:
AKT2 = biological target: T1, AKT2 (Homo sapiens, UniProt P31751); experiment: biochemical
T1 construct: purchased Reaction Biology Corporation

AMPK (A1/B2/G3) = biological target: T2, AMPK (A1/B2/G3) (Homo sapiens, UniProt Q13131); experiment: HotSpot kinase assay; format: biochemical; conditions: 10µM; read-out: % Enzyme Activity (relative to DMSO controls)
T2 construct: purchased Reaction Biology Corporation
Description: (§1) Kinase activity were performed by Reaction Biology Corporation using the “HotSpot” assay platform modified from the published procedure.

AMPK (A2/B1/G3) = biological target: T3, AMPK (A2/B1/G3) (Homo sapiens, UniProt P54646); experiment: HotSpot kinase assay; format: biochemical; conditions: 10µM; read-out: % Enzyme Activity (relative to DMSO controls)
T3 construct: purchased Reaction Biology Corporation
Description: as §1

AMPK(A1/B1/G1) = biological target: T4, AMPK(A1/B1/G1) (Homo sapiens, UniProt Q13131); experiment: HotSpot kinase assay; format: biochemical; conditions: 10µM; read-out: % Enzyme Activity (relative to DMSO controls)
T4 construct: purchased Reaction Biology Corporation
Description: as §1

AMPK(A1/B1/G2) = biological target: T5, AMPK(A1/B1/G2) (Homo sapiens, UniProt Q13131); experiment: HotSpot kinase assay; format: biochemical; conditions: 10µM; read-out: % Enzyme Activity (relative to DMSO controls)
T5 construct: purchased Reaction Biology Corporation
Description: as §1

AMPK(A1/B2/G1) = biological target: T6, AMPK(A1/B2/G1) (Homo sapiens, UniProt Q13131); experiment: HotSpot kinase assay; format: biochemical; conditions: 10µM; read-out: % Enzyme Activity (relative to DMSO controls)
T6 construct: purchased Reaction Biology Corporation
Description: as §1

AMPK(A2/B1/G1) = biological target: T7, AMPK(A2/B1/G1) (Homo sapiens, UniProt P54646); experiment: HotSpot kinase assay; format: biochemical; conditions: 10µM; read-out: % Enzyme Activity (relative to DMSO controls)
T7 construct: purchased Reaction Biology Corporation
Description: as §1

AMPK(A2/B2/G1) = biological target: T8, AMPK(A2/B2/G1) (Homo sapiens, UniProt P54646); experiment: HotSpot kinase assay; format: biochemical; conditions: 10µM; read-out: % Enzyme Activity (relative to DMSO controls)
T8 construct: purchased Reaction Biology Corporation
Description: as §1

AMPK(A2/B2/G2) = biological target: T9, AMPK(A2/B2/G2) (Homo sapiens, UniProt P54646); experiment: HotSpot kinase assay; format: biochemical; conditions: 10µM; read-out: % Enzyme Activity (relative to DMSO controls)
T9 construct: purchased Reaction Biology Corporation
Description: as §1

AMPK(A2/B2/G3) = biological target: T10, AMPK(A2/B2/G3) (Homo sapiens, UniProt P54646); experiment: HotSpot kinase assay; format: biochemical; conditions: 10µM; read-out: % Enzyme Activity (relative to DMSO controls)
T10 construct: purchased Reaction Biology Corporation
Description: as §1

ARAF = biological target: T11, ARAF (Homo sapiens, UniProt P10398); experiment: HotSpot kinase assay; format: biochemical; conditions: 10µM; read-out: % Enzyme Activity (relative to DMSO controls)
T11 construct: purchased Reaction Biology Corporation
Description: as §1

COT1/MAP3K8 = biological target: T12, COT1/MAP3K8 (Homo sapiens, UniProt P41279); experiment: HotSpot kinase assay; format: biochemical; conditions: 10µM; read-out: % Enzyme Activity (relative to DMSO controls)
T12 construct: purchased Reaction Biology Corporation
Description: as §1

DYRK4 = biological target: T13, DYRK4 (Homo sapiens, UniProt Q9NR20); experiment: HotSpot kinase assay; format: biochemical; conditions: 10µM; read-out: % Enzyme Activity (relative to DMSO controls)
T13 construct: purchased Reaction Biology Corporation
Description: as §1

EIF2AK1 = biological target: T14, EIF2AK1 (Homo sapiens, UniProt Q9BQI3); experiment: HotSpot kinase assay; format: biochemical; conditions: 10µM; read-out: % Enzyme Activity (relative to DMSO controls)
T14 construct: purchased Reaction Biology Corporation
Description: as §1

ERK1 = biological target: T15, ERK1 (Homo sapiens, UniProt P27361); experiment: HotSpot kinase assay; format: biochemical; conditions: 10µM; read-out: % Enzyme Activity (relative to DMSO controls)
T15 construct: purchased Reaction Biology Corporation
Description: as §1

HIPK1 = biological target: T16, HIPK1 (Homo sapiens, UniProt Q86Z02); experiment: HotSpot kinase assay; format: biochemical; conditions: 10µM; read-out: % Enzyme Activity (relative to DMSO controls)
T16 construct: purchased Reaction Biology Corporation
Description: as §1

HPK1/MAP4K1 = biological target: T17, HPK1/MAP4K1 (Homo sapiens, UniProt Q92918); experiment: HotSpot kinase assay; format: biochemical; conditions: 10µM; read-out: % Enzyme Activity (relative to DMSO controls)
T17 construct: purchased Reaction Biology Corporation
Description: as §1

LOK/STK10 = biological target: T18, LOK/STK10 (Homo sapiens, UniProt O94804); experiment: HotSpot kinase assay; format: biochemical; conditions: 10µM; read-out: % Enzyme Activity (relative to DMSO controls)
T18 construct: purchased Reaction Biology Corporation
T18 sequence (O94804 whole entry): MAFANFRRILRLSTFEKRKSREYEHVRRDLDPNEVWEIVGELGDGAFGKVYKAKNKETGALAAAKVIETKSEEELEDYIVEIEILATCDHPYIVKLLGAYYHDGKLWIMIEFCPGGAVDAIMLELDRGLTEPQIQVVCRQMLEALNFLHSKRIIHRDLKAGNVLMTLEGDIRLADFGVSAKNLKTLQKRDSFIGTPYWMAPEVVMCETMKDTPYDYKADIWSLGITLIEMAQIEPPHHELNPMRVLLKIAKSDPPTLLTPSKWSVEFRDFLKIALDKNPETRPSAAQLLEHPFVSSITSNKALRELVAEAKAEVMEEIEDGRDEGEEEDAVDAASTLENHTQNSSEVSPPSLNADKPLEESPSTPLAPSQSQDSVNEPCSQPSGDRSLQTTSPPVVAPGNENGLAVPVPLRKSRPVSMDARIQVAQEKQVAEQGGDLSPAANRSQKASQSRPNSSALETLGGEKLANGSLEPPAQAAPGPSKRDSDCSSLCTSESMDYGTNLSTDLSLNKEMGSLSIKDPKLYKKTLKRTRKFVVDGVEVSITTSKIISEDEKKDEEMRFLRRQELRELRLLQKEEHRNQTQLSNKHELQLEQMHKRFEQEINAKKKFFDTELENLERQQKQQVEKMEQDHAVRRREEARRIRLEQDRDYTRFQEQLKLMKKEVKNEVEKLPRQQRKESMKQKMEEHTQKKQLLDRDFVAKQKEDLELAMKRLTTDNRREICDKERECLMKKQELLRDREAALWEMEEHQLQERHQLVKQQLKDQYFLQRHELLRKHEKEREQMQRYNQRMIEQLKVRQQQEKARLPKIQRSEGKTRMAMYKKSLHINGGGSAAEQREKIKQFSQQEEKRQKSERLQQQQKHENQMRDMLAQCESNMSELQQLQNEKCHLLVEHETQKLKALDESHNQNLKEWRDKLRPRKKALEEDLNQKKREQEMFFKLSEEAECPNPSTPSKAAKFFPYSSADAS
Description: as §1

NEK3 = biological target: T19, NEK3 (Homo sapiens, UniProt P51956); experiment: HotSpot kinase assay; format: biochemical; conditions: 10µM; read-out: % Enzyme Activity (relative to DMSO controls)
T19 construct: purchased Reaction Biology Corporation
Description: as §1

NEK6 = biological target: T20, NEK6 (Homo sapiens, UniProt Q9HC98); experiment: HotSpot kinase assay; format: biochemical; conditions: 10µM; read-out: % Enzyme Activity (relative to DMSO controls)
T20 construct: purchased Reaction Biology Corporation
T20 sequence (Q9HC98 whole entry): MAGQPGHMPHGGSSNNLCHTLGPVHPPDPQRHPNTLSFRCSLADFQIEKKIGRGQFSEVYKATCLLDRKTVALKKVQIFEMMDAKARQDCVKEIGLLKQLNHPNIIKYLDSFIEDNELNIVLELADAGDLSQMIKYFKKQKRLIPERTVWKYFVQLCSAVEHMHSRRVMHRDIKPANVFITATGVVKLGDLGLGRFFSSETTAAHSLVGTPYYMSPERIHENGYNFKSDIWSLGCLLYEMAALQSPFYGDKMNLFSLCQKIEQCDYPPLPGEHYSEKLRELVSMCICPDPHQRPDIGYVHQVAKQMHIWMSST
Description: as §1

NEK7 = biological target: T21, NEK7 (Homo sapiens, UniProt Q8TDX7); experiment: HotSpot kinase assay; format: biochemical; conditions: 10µM; read-out: % Enzyme Activity (relative to DMSO controls)
T21 construct: purchased Reaction Biology Corporation
Description: as §1

PDK1/PDHK1 = biological target: T22, PDK1/PDHK1 (Homo sapiens, UniProt Q15118); experiment: HotSpot kinase assay; format: biochemical; conditions: 10µM; read-out: % Enzyme Activity (relative to DMSO controls)
T22 construct: purchased Reaction Biology Corporation
Description: as §1

PDK2/PDHK2 = biological target: T23, PDK2/PDHK2 (Homo sapiens, UniProt Q15119); experiment: HotSpot kinase assay; format: biochemical; conditions: 10µM; read-out: % Enzyme Activity (relative to DMSO controls)
T23 construct: purchased Reaction Biology Corporation
Description: as §1

PDK3/PDHK3 = biological target: T24, PDK3/PDHK3 (Homo sapiens, UniProt Q15120); experiment: HotSpot kinase assay; format: biochemical; conditions: 10µM; read-out: % Enzyme Activity (relative to DMSO controls)
T24 construct: purchased Reaction Biology Corporation
Description: as §1

PDK4/PDHK4 = biological target: T25, PDK4/PDHK4 (Homo sapiens, UniProt Q16654); experiment: HotSpot kinase assay; format: biochemical; conditions: 10µM; read-out: % Enzyme Activity (relative to DMSO controls)
T25 construct: purchased Reaction Biology Corporation
Description: as §1

TGFBR2 = biological target: T26, TGFBR2 (Homo sapiens, UniProt P37173); experiment: HotSpot kinase assay; format: biochemical; conditions: 10µM; read-out: % Enzyme Activity (relative to DMSO controls)
T26 construct: purchased Reaction Biology Corporation
T26 sequence (P37173 23-567): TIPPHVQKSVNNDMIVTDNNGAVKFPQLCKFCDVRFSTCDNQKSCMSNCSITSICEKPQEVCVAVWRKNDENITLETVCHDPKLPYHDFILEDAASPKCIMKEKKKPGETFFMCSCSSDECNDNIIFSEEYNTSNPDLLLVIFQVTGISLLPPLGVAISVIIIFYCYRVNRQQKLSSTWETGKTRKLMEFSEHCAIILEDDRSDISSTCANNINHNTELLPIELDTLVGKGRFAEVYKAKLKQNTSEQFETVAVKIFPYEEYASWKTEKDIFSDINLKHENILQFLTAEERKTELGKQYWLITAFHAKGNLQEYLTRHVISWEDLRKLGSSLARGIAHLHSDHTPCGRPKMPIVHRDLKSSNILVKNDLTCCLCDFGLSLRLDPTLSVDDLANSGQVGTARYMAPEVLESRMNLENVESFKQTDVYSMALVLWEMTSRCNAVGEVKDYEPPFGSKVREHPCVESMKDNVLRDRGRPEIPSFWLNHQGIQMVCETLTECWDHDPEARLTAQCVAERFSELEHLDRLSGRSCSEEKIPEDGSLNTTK
Description: as §1

TRPM7/CHAK1 = biological target: T27, TRPM7/CHAK1 (Homo sapiens, UniProt Q96QT4); experiment: HotSpot kinase assay; format: biochemical; conditions: 10µM; read-out: % Enzyme Activity (relative to DMSO controls)
T27 construct: purchased Reaction Biology Corporation
Description: as §1

TTBK1 = biological target: T28, TTBK1 (Homo sapiens, UniProt Q5TCY1); experiment: HotSpot kinase assay; format: biochemical; conditions: 10µM; read-out: % Enzyme Activity (relative to DMSO controls)
T28 construct: purchased Reaction Biology Corporation
Description: as §1

TTBK2 = biological target: T29, TTBK2 (Homo sapiens, UniProt Q6IQ55); experiment: HotSpot kinase assay; format: biochemical; conditions: 10µM; read-out: % Enzyme Activity (relative to DMSO controls)
T29 construct: purchased Reaction Biology Corporation
Description: as §1

VRK1 = biological target: T30, VRK1 (Homo sapiens, UniProt Q99986); experiment: HotSpot kinase assay; format: biochemical; conditions: 10µM; read-out: % Enzyme Activity (relative to DMSO controls)
T30 construct: purchased Reaction Biology Corporation
Description: as §1

VRK2 = biological target: T31, VRK2 (Homo sapiens, UniProt Q86Y07); experiment: HotSpot kinase assay; format: biochemical; conditions: 10µM; read-out: % Enzyme Activity (relative to DMSO controls)
T31 construct: purchased Reaction Biology Corporation
Description: as §1

WEE1 = biological target: T32, WEE1 (Homo sapiens, UniProt P30291); experiment: HotSpot kinase assay; format: biochemical; conditions: read-out: % Enzyme Activity (relative to DMSO controls)
T32 construct: purchased Reaction Biology Corporation
Description: as §1

WNK3 = biological target: T33, WNK3 (Homo sapiens, UniProt Q9BYP7); experiment: HotSpot kinase assay; format: biochemical; conditions: 10µM; read-out: % Enzyme Activity (relative to DMSO controls)
T33 construct: purchased Reaction Biology Corporation
Description: as §1

ZAK/MLTK = biological target: T34, ZAK/MLTK (Homo sapiens, UniProt Q9NYL2); experiment: HotSpot kinase assay; format: biochemical; conditions: 10µM; read-out: % Enzyme Activity (relative to DMSO controls)
T34 construct: purchased Reaction Biology Corporation
T34 sequence (Q9NYL2 whole entry): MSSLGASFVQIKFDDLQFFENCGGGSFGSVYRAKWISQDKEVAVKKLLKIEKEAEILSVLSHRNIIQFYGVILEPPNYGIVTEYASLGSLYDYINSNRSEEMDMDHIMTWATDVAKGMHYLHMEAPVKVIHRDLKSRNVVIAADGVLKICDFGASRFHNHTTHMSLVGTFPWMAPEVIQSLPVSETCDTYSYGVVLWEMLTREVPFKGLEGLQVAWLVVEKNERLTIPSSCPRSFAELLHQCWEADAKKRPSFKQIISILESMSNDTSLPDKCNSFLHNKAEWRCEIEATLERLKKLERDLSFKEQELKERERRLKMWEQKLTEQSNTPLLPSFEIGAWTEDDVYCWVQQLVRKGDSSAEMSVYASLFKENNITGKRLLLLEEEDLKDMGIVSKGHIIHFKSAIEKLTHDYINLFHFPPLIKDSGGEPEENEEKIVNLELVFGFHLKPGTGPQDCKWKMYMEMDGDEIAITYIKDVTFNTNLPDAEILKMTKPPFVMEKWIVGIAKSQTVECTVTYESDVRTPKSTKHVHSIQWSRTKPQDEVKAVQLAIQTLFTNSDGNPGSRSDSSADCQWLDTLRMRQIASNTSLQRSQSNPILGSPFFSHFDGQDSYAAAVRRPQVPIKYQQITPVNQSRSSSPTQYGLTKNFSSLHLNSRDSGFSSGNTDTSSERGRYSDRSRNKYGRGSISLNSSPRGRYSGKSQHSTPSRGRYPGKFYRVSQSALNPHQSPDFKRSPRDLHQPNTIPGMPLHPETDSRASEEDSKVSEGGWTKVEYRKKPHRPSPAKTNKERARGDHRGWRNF
Description: as §1

CDK4/cyclin D3 = biological target: T35, CDK4/cyclin D3 (Homo sapiens, UniProt P11802); experiment: HotSpot kinase assay; format: biochemical; conditions: read-out: % Enzyme Activity (relative to DMSO controls)
T35 construct: purchased Reaction Biology Corporation
T35 sequence (P11802 whole entry): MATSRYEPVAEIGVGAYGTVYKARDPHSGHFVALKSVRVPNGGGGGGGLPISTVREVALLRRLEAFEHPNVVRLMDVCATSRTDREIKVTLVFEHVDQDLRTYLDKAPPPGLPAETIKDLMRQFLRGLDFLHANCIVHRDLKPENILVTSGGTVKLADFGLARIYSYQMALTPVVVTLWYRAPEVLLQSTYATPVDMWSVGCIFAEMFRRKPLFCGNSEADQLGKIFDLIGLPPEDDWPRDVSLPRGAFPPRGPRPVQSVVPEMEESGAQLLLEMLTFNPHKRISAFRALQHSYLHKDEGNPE
T35 sequence (P30281 whole entry partner): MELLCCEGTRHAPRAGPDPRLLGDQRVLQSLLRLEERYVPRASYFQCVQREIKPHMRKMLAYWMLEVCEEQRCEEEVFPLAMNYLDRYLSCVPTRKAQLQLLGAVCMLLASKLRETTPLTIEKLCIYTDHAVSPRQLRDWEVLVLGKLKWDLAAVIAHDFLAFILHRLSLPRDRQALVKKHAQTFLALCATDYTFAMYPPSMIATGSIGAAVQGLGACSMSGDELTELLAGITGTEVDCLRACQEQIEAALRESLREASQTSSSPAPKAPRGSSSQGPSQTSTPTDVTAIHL

CSK = biological target: T36, CSK (Homo sapiens, UniProt P41240); experiment: HotSpot kinase assay; format: biochemical; conditions: read-out: % Enzyme Activity (relative to DMSO controls)
T36 construct: purchased Reaction Biology Corporation

ERN1/IRE1 = biological target: T37, ERN1/IRE1 (Homo sapiens, UniProt O75460); experiment: HotSpot kinase assay; format: biochemical; conditions: read-out: % Enzyme Activity (relative to DMSO controls)
T37 construct: purchased Reaction Biology Corporation

FRK/PTK5 = biological target: T38, FRK/PTK5 (Homo sapiens, UniProt P42685); experiment: HotSpot kinase assay; format: biochemical; conditions: read-out: % Enzyme Activity (relative to DMSO controls)
T38 construct: purchased Reaction Biology Corporation
T38 sequence (P42685 whole entry): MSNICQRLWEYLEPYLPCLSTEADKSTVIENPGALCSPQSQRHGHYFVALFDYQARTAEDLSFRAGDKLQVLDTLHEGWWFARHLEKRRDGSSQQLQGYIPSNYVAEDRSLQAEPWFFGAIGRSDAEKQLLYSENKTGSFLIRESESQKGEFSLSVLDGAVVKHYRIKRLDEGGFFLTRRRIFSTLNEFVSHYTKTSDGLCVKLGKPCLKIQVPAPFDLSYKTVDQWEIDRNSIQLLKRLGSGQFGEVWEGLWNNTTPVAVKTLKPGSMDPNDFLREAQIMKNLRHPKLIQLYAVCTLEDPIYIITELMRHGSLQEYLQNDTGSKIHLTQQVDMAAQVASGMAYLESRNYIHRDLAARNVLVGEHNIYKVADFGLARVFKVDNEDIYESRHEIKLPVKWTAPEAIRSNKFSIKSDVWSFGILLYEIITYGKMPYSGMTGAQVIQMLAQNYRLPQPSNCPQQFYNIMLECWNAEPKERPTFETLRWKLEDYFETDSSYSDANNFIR

IKKb/IKBKB = biological target: T39, IKKb/IKBKB (Homo sapiens, UniProt O14920); experiment: HotSpot kinase assay; format: biochemical; conditions: read-out: % Enzyme Activity (relative to DMSO controls)
T39 construct: purchased Reaction Biology Corporation
T39 sequence (O14920 whole entry): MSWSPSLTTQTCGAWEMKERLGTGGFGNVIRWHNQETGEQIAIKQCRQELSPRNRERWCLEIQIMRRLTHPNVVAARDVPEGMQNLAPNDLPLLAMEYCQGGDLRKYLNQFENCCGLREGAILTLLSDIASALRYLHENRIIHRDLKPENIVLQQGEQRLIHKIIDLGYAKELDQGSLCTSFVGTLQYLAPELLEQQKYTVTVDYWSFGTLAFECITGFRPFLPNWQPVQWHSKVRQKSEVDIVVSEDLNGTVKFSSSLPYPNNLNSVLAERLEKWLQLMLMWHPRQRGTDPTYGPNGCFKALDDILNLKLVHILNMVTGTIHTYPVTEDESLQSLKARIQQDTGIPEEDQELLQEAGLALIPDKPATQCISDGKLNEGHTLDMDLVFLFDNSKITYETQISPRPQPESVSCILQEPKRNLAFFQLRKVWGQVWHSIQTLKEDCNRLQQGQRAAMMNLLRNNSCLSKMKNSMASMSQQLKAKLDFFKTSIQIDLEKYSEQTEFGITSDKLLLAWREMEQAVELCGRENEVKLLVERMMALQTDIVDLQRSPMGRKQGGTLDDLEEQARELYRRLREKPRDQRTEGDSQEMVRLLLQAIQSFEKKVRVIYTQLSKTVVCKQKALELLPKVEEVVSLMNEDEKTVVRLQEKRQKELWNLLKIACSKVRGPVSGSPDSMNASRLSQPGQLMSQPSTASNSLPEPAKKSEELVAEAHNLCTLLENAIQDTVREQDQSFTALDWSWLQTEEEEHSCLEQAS

KSR2 = biological target: T40, KSR2 (Homo sapiens, UniProt Q6VAB6); experiment: biochemical; conditions: read-out: % Enzyme Activity (relative to DMSO controls)
T40 construct: purchased Reaction Biology Corporation

SYK = biological target: T41, SYK (Homo sapiens, UniProt P43405); experiment: HotSpot kinase assay; format: biochemical; conditions: read-out: % Enzyme Activity (relative to DMSO controls)
T41 construct: purchased Reaction Biology Corporation

T1 sequence (P31751 whole entry): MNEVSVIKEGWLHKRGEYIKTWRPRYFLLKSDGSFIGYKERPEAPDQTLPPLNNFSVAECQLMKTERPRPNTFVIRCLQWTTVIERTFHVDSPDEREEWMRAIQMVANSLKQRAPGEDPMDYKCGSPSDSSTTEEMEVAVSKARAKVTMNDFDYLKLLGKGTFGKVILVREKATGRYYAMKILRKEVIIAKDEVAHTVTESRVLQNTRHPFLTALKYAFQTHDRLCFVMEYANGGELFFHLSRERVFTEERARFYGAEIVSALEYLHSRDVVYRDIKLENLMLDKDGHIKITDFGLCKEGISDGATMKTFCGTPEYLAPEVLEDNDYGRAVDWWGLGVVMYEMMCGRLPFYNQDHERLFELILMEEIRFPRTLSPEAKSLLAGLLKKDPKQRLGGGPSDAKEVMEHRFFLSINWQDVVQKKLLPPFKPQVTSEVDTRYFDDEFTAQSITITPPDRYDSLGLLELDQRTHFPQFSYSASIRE

`CO[C@@H]1[C@H](N(C)C(=O)CCC(=O)NCc2cn(CCCS(=O)(=O)O)nn2)C[C@H]2O[C@]1(C)n1c3ccccc3c3c4c(c5c6ccccc6n2c5c31)C(=O)NC4` [CIMSS] showed an IC50 (AKT2; Supplementary Table 1, read-out: IC50 (Molar concentration)) of 1000 nM, a remaining activity at 10 µM (AKT2; read-out: % Enzyme Activity (relative to DMSO controls), 10µM) of 19.1% and an inhibition at 10 µM (AKT2; read-out: inhibition of Akt2) of over 75%. It also gave a remaining activity at 10 µM (AMPK (A1/B2/G3)) of 1.13%, a remaining activity at 10 µM (AMPK (A2/B1/G3)) of 0.67% and a remaining activity at 10 µM (AMPK(A1/B1/G1)) of 1.14%. It also gave a remaining activity at 10 µM (AMPK(A1/B1/G2)) of 1.46%, a remaining activity at 10 µM (AMPK(A1/B2/G1)) of 0.73% and a remaining activity at 10 µM (AMPK(A2/B1/G1)) of 0.76%. The remaining activity at 10 µM (AMPK(A2/B2/G1)) was 0.34%, the remaining activity at 10 µM (AMPK(A2/B2/G2)) was 0.73% and the remaining activity at 10 µM (AMPK(A2/B2/G3)) was 0.63%. For the same molecule, the remaining activity at 10 µM (ARAF) was 154%, the remaining activity at 10 µM (COT1/MAP3K8) was 110% and the remaining activity at 10 µM (DYRK4) was 92%. It also gave a remaining activity at 10 µM (EIF2AK1) of 82.5%, a remaining activity at 10 µM (ERK1) of 91.8% and a remaining activity at 10 µM (HIPK1) of 36.4%. For the same molecule, the remaining activity at 10 µM (HPK1/MAP4K1) was 2.66%, the remaining activity at 10 µM (LOK/STK10) was 2.86% and the remaining activity at 10 µM (NEK3) was 87.3%. For the same molecule, the remaining activity at 10 µM (NEK6) was 89%, the remaining activity at 10 µM (NEK7) was 88.5% and the remaining activity at 10 µM (PDK1/PDHK1) was 97.2%. For the same molecule, the remaining activity at 10 µM (PDK2/PDHK2) was 95.5%, the remaining activity at 10 µM (PDK3/PDHK3) was 96.4% and the remaining activity at 10 µM (PDK4/PDHK4) was 93.2%. The remaining activity at 10 µM (TGFBR2) was 111%, the remaining activity at 10 µM (TRPM7/CHAK1) was 91.6% and the remaining activity at 10 µM (TTBK1) was 67.7%. It also gave a remaining activity at 10 µM (TTBK2) of 95.1%, a remaining activity at 10 µM (VRK1) of 81.6% and a remaining activity at 10 µM (VRK2) of 81.8%. The remaining activity at 10 µM (WEE1) was 44.2%, the remaining activity at 10 µM (WNK3) was 66.4% and the remaining activity at 10 µM (ZAK/MLTK) was 82.7%. For the same molecule, the remaining activity at 10 µM (CDK4/cyclin D3) was 85.6%, the remaining activity at 10 µM (CSK) was 2.41% and the remaining activity at 10 µM (ERN1/IRE1) was 8.49%. It also gave a remaining activity at 10 µM (FRK/PTK5) of 4.49%, a remaining activity at 10 µM (IKKb/IKBKB) of 33.4% and a remaining activity at 10 µM (KSR2) of 108%. It also gave a remaining activity at 10 µM (SYK) of 0.87%.
